Test results taken from article PMC8800111 (The Journal of Biological Chemistry, 2021).

How the values were obtained:
Type in all cases: cell-based
[1] = target: proteins of U3A human fibrosarcoma cells (4462 proteins detected) (Homo sapiens, UniProt O00764); conditions: protein PDXK, U3A cells
[2] = target: proteins of U3A human fibrosarcoma cells (4462 proteins detected) (Homo sapiens, UniProt Q96PE7); conditions: protein MCEE; U3A, 10 μM, 2 h
[3] = target: proteins of U3A human fibrosarcoma cells (4462 proteins detected) (Homo sapiens, UniProt O00505); conditions: protein KPNA3; U3A cells
Sequence of proteins of U3A human fibrosarcoma cells (4462 proteins detected) (Homo sapiens, UniProt O00505) (O00505 whole entry): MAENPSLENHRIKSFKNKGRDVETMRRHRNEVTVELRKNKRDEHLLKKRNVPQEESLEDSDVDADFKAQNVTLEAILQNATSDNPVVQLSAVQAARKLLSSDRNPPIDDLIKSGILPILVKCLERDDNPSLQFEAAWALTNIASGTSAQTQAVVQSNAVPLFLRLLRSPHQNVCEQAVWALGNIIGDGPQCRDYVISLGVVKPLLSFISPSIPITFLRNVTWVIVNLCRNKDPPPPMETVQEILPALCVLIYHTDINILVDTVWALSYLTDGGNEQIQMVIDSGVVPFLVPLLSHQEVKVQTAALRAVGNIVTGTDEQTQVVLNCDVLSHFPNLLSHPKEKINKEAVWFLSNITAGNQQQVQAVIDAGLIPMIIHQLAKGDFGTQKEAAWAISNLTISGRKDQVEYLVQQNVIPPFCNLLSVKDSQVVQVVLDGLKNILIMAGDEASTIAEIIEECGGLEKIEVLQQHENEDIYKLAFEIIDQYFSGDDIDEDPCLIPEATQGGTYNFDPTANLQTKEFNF

[4] = target: proteins of U3A human fibrosarcoma cells (4462 proteins detected) (Homo sapiens, UniProt O00629); conditions: protein KPNA4; U3A cells
[5] = target: proteins of U3A human fibrosarcoma cells (4462 proteins detected) (Homo sapiens, UniProt Q15382); conditions: protein RHEB; U3A, 10 μM, 2 h
[6] = target: proteins of U3A human fibrosarcoma cells (4462 proteins detected) (Homo sapiens, UniProt O15042); conditions: protein U2SURP; U3A cells
Sequence of proteins of U3A human fibrosarcoma cells (4462 proteins detected) (Homo sapiens, UniProt O15042) (O15042 whole entry): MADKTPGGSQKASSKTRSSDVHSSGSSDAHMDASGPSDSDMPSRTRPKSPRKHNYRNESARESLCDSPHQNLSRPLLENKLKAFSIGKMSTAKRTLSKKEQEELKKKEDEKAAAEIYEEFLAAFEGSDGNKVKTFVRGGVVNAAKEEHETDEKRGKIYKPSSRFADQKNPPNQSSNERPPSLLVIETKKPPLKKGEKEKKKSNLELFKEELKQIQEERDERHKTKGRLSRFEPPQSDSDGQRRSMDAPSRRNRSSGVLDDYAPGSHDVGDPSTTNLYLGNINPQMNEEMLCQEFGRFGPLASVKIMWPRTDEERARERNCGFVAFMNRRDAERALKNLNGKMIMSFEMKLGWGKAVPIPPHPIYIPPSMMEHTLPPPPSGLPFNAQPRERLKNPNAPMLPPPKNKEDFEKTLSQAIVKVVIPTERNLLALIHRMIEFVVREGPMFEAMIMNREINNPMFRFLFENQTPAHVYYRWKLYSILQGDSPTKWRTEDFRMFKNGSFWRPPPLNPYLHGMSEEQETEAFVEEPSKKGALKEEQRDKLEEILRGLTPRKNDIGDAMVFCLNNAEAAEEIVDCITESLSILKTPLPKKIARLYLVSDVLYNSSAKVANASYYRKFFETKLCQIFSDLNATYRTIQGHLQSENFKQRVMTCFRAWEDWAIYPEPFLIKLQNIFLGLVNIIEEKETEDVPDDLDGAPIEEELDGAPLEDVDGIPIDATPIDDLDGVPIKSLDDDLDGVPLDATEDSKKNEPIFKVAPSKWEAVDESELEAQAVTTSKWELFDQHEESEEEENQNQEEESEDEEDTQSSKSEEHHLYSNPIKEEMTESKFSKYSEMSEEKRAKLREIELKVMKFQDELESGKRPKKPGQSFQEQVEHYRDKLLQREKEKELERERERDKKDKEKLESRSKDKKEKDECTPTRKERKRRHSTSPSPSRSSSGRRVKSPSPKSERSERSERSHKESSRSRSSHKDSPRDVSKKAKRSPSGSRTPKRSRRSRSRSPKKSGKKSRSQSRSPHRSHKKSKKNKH

[7] = target: proteins of U3A human fibrosarcoma cells (4462 proteins detected) (Homo sapiens, UniProt P14866); conditions: protein HNRNPL; soluble abundance after heat, U3A cells
[8] = target: proteins of U3A human fibrosarcoma cells (4462 proteins detected) (Homo sapiens, UniProt Q8NBN3); conditions: protein TMEM87A; U3A cells
[9] = target: proteins of U3A human fibrosarcoma cells (4462 proteins detected) (Homo sapiens, UniProt P49756); conditions: protein RBM25; U3A cells
Sequence of proteins of U3A human fibrosarcoma cells (4462 proteins detected) (Homo sapiens, UniProt P49756) (P49756 whole entry): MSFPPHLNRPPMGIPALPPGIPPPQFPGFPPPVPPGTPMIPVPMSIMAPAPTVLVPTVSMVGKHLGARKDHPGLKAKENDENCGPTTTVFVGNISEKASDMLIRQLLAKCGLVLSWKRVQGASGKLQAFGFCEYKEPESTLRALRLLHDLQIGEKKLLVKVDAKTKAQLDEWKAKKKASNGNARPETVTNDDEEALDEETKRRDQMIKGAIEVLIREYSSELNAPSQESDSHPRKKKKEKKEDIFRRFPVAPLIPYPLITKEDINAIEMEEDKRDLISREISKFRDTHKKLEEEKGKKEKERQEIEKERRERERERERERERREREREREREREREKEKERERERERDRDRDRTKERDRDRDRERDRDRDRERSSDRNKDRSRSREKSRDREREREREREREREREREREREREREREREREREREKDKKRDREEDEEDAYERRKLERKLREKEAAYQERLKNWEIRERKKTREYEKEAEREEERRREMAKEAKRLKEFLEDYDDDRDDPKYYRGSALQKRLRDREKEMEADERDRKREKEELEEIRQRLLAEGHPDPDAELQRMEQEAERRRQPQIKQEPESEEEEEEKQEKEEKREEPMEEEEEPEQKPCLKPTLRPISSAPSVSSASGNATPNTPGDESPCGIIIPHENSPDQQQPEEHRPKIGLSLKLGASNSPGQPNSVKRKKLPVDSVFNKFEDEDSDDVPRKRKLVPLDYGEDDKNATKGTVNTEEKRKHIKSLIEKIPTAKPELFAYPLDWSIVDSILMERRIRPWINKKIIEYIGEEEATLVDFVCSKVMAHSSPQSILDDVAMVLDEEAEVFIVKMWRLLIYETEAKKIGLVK

[10] = target: proteins of U3A human fibrosarcoma cells (4462 proteins detected) (Homo sapiens, UniProt Q9NXV2); conditions: protein KCTD5, U3A cells
Sequence of proteins of U3A human fibrosarcoma cells (4462 proteins detected) (Homo sapiens, UniProt Q9NXV2) (Q9NXV2 whole entry): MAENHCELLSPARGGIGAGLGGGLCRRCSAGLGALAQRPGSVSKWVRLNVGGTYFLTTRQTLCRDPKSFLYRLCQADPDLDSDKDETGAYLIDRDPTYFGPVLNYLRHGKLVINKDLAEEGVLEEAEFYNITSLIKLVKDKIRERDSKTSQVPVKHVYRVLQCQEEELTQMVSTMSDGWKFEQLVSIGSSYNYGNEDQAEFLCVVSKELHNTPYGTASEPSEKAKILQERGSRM

[11] = target: proteins of U3A human fibrosarcoma cells (4462 proteins detected) (Homo sapiens, UniProt O14976); conditions: protein GAK; U3A, 10 μM, 2 h
[12] = target: proteins of U3A human fibrosarcoma cells (4462 proteins detected) (Homo sapiens, UniProt P49207); conditions: protein RPL34; U3A cells
[13] = target: proteins of U3A human fibrosarcoma cells (4462 proteins detected) (Homo sapiens, UniProt P62873); conditions: protein GNB1; U3A cells
Sequence of proteins of U3A human fibrosarcoma cells (4462 proteins detected) (Homo sapiens, UniProt P62873) (P62873 whole entry): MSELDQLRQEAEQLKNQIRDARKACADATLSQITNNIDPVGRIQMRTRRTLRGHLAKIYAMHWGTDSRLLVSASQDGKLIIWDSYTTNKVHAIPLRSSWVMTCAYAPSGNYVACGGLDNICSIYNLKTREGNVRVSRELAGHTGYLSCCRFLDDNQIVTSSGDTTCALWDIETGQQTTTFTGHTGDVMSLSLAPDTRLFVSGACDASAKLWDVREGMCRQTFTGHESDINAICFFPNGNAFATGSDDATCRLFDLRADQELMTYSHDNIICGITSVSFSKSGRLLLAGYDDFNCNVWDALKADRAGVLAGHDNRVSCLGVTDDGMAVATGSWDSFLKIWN

[14] = target: proteins of U3A human fibrosarcoma cells (4462 proteins detected) (Homo sapiens, UniProt Q9H8M7); conditions: protein FAM188A, U3A cells
[15] = target: proteins of U3A human fibrosarcoma cells (4462 proteins detected) (Homo sapiens, UniProt P04920); conditions: protein SLC4A2; U3A cells
[16] = target: proteins of U3A human fibrosarcoma cells (4462 proteins detected) (Homo sapiens, UniProt P20042); conditions: protein EIF2S2; U3A cells
[17] = target: proteins of U3A human fibrosarcoma cells (4462 proteins detected) (Homo sapiens, UniProt Q9Y5J1); conditions: protein UTP18; U3A cells
[18] = target: proteins of U3A human fibrosarcoma cells (4462 proteins detected) (Homo sapiens, UniProt Q9H7Z7); conditions: protein PTGES2, U3A cells
[19] = target: proteins of U3A human fibrosarcoma cells (4462 proteins detected) (Homo sapiens, UniProt Q16774); conditions: protein GUK1; U3A, 10 μM, 2 h
Sequence of proteins of U3A human fibrosarcoma cells (4462 proteins detected) (Homo sapiens, UniProt Q16774) (Q16774 whole entry): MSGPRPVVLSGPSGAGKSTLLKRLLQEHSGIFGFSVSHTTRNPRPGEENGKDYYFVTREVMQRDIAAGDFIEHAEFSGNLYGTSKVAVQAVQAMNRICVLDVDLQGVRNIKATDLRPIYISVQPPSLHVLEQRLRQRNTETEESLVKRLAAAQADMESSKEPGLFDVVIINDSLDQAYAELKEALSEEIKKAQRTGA

[20] = target: proteins of U3A human fibrosarcoma cells (4462 proteins detected) (Homo sapiens, UniProt Q86V21); conditions: protein AACS, U3A cells
[21] = target: proteins of U3A human fibrosarcoma cells (4462 proteins detected) (Homo sapiens, UniProt P35221); conditions: protein CTNNA1; U3A, 10 μM, 2 h
Sequence of proteins of U3A human fibrosarcoma cells (4462 proteins detected) (Homo sapiens, UniProt P35221) (P35221 whole entry): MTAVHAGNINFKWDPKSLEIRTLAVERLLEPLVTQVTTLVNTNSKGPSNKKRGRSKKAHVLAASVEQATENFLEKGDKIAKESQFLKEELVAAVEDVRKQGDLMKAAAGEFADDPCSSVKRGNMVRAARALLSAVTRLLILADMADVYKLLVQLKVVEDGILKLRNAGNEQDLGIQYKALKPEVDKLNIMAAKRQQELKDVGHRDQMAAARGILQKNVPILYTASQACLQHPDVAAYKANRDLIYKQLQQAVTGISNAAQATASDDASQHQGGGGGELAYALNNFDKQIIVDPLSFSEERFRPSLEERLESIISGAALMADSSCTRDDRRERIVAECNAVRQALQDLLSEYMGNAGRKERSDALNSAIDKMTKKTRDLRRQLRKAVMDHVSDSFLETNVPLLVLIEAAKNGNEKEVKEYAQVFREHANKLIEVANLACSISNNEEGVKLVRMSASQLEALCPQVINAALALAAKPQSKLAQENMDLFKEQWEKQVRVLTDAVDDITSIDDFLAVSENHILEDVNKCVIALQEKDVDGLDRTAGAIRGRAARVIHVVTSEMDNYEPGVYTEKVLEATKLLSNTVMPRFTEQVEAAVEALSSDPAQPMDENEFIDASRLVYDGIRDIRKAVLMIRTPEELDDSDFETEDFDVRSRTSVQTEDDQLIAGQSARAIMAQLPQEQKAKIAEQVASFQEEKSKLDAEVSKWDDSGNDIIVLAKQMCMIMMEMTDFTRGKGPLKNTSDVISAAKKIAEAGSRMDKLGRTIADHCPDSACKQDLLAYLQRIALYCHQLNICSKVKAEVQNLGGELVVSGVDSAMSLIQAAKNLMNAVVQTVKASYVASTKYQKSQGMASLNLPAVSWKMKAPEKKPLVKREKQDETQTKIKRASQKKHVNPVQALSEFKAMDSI

[22] = target: proteins of U3A human fibrosarcoma cells (4462 proteins detected) (Homo sapiens, UniProt Q9NXR8); conditions: protein ING3, U3A cells
[23] = target: proteins of U3A human fibrosarcoma cells (4462 proteins detected) (Homo sapiens, UniProt Q16740); conditions: protein CLPP; soluble abundance after heat, U3A cells
[24] = target: proteins of U3A human fibrosarcoma cells (4462 proteins detected) (Homo sapiens, UniProt O75400); conditions: protein PRPF40A; U3A cells
[25] = target: proteins of U3A human fibrosarcoma cells (4462 proteins detected) (Homo sapiens, UniProt Q9UEY8); conditions: protein ADD3; U3A cells
Sequence of proteins of U3A human fibrosarcoma cells (4462 proteins detected) (Homo sapiens, UniProt Q9UEY8) (Q9UEY8 whole entry): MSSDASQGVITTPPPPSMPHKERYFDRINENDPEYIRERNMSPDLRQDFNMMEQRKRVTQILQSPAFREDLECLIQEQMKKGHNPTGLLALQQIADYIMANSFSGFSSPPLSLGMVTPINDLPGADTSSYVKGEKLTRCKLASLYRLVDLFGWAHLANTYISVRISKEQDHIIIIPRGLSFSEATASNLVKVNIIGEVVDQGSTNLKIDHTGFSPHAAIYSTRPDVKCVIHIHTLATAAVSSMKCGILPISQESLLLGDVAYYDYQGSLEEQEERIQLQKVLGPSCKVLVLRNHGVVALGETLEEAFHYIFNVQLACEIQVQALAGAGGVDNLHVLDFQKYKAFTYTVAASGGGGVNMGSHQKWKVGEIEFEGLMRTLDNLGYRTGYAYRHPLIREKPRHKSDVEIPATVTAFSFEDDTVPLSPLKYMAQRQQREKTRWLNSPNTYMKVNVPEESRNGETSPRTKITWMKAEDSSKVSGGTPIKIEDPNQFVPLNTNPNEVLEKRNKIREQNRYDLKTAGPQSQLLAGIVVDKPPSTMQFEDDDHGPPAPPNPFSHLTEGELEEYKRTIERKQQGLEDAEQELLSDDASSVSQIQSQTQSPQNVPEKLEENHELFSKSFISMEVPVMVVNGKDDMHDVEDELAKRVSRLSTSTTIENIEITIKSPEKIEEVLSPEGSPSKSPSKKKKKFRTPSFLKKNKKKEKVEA

[26] = target: proteins of U3A human fibrosarcoma cells (4462 proteins detected) (Homo sapiens, UniProt Q8TAQ2); conditions: protein SMARCC2; soluble abundance after heat, U3A cells
[27] = target: proteins of U3A human fibrosarcoma cells (4462 proteins detected) (Homo sapiens, UniProt Q9GZV4); conditions: protein EIF5A2; U3A, 10 μM, 2 h
[28] = target: proteins of U3A human fibrosarcoma cells (4462 proteins detected) (Homo sapiens, UniProt O95671); conditions: protein ASMTL; U3A, 10 μM, 2 h
[29] = target: proteins of U3A human fibrosarcoma cells (4462 proteins detected) (Homo sapiens, UniProt Q9UNN8); conditions: protein PROCR; U3A cells
[30] = target: proteins of U3A human fibrosarcoma cells (4462 proteins detected) (Homo sapiens, UniProt Q9Y237); conditions: protein PIN4, U3A cells
Sequence of proteins of U3A human fibrosarcoma cells (4462 proteins detected) (Homo sapiens, UniProt Q9Y237) (Q9Y237 whole entry): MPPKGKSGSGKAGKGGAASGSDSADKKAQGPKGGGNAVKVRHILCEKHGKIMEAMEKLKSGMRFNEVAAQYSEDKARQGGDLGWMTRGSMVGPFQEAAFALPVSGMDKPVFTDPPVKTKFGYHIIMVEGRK

## CCc1nc(N)nc(N)c1-c1ccc(Cl)cc1 [pyrimethamine]
[1]
  Log2 (PYR/DMSO): -0.05
[2]
  Log2 (PYR/DMSO), MCEE: 0.25
[3]
  Log2 (PYR/DMSO): 0.18
[4]
  Log2 (PYR/DMSO): 0.22
[5]
  Log2 (PYR/DMSO), RHEB: -0.45
[6]
  Log2 (PYR/DMSO): 0.18
[7]
  Log2 (PYR/DMSO): 0.15
[8]
  Log2 (PYR/DMSO): 0.19
[9]
  Log2 (PYR/DMSO): 0.21
[10]
  Log2 (PYR/DMSO): -0.04
[11]
  Log2 (PYR/DMSO), GAK: -0.20
[12]
  Log2 (PYR/DMSO): 0.21
[13]
  Log2 (PYR/DMSO): 0.22
[14]
  Log2 (PYR/DMSO): -0.04
[15]
  Log2 (PYR/DMSO): 0.16
[16]
  Log2 (PYR/DMSO): 0.17
[17]
  Log2 (PYR/DMSO): 0.21
[18]
  Log2 (PYR/DMSO): -0.04
[19]
  Log2 (PYR/DMSO), GUK1: -0.14
[20]
  Log2 (PYR/DMSO): -0.04
[21]
  Log2 (PYR/DMSO), CTNNA1: 0.23
[22]
  Log2 (PYR/DMSO): -0.04
[23]
  Log2 (PYR/DMSO): 0.14
[24]
  Log2 (PYR/DMSO): 0.16
[25]
  Log2 (PYR/DMSO): 0.16
[26]
  Log2 (PYR/DMSO): 0.13
[27]
  Log2 (PYR/DMSO), EIF5A2: -0.18
[28]
  Log2 (PYR/DMSO), ASMTL: 0.27
[29]
  Log2 (PYR/DMSO): 0.18
[30]
  Log2 (PYR/DMSO): -0.05
